Assay results taken from PMC3859510 (PLoS ONE, 2013).
Read-outs that look alike come from different tables or passages of the source.

Columns and labels:
[1] = tested on: HCV replicons I389luc-ubi-neo/NS3-3′/5.1 (Huh 5-2), genotype 1b subgenomic replicon; test: Antiviral assay in HCV replicon cells (Huh 5-2, firefly luciferase); format: cell-based, hepatitis C virus (HCV); conditions: for EC50: Hepatitis C virus, read-out: EC50 (50% effective concentration), HCV replicon replication, Huh 5-2 subgenomic replicon (genotype 1b), firefly luciferase, mean ± SD, four independent experiments; for fold-change of EC50 with Hemin (5 µM) (value between brackets): Huh 5-2 replicon, potentiation by Hemin 5 µM
Procedure: Cells carrying HCV replicons I389luc-ubi-neo/NS3-3′/5.1 (Huh 5-2) were kindly provided by Prof. R. Bartenschlager (University of Heidelberg, Germany). Cells were cultured in Dulbecco’s modified Eagle’s Medium (DMEM, Gibco, Merelbeke, Belgium) supplemented with 10% heat-inactivated fetal bovine serum (Integro, Zaandam, The Netherlands), 1× non-essential amino acids, 100 IU/mL penicillin (Gibco), 100 µg/mL streptomycin (Gibco), and 250 µg/mL G418. Cell cultures were maintained at 37°C with 5% CO2.
(§1) The antiviral assay was performed as described, [22]. Briefly, cells were seeded at a density of 5×10^3 cells per well in 96-well cell culture plates in DMEM containing 250 µg/mL G418 at 37°C (5% CO2). After 24 hours of incubation, medium was replaced with fresh DMEM (without G418) and serial dilutions of the test compounds. Replicon RNA levels were determined by a quantitative reverse transcription polymerase chain reaction (qRT-PCR) or quantified by measuring the firefly luciferase activity in 96-well cell culture plates (Safire, Tecan, Austria).

[2] = tested on: infectious HCV JFH-1/CS-N6 in Huh 7.5.1 cells; test: microbe, parasite or virus in culture; format: cell-based, hepatitis C virus (HCV); conditions: for SI: HCVcc system, CC50/EC50; for EC50: 3 days, qRT-PCR, mean ± SD, four independent experiments
Procedure: The highly infectious HCV JFH-1/CS-N6 described by Delgrange et al was used for the antiviral assays. A total of 7.2×10^3 Huh 7.5.1 cells per well of a 96-well cell culture plate were incubated with the virus at specific infectivity of about 400 (400 HCV RNA copies per foci-forming unit) and at the same time with serial dilutions of compounds. Following 3 days of incubation, medium was removed and cells were washed once and lysed to extract the intracellular RNA with the RNeasy kit (Qiagen). HCV RNA was quantified by means of qRT-PCR [25].
A qRT-PCR mixture contained: cellular RNA extract, HCV JFH-1 forward primer SF-JFH86 [5′-[…]-3′], reverse primer SR-JFH194 [5′-[…]-3′], and probe [5′-FAM-[…]-TAMRA-3′], was performed at 50°C for 30 min, subsequent 15 min at 95°C and PCR amplification of 40 cycles of denaturation at 94°C for 20 s and annealing and extension at 60°C for 1 min in an ABI 7500 Taqman (Live Technologies).

[3] = Cytostatic assay (MTS/PMS) in Huh 5-2 cells; format: cell-based; conditions: human, three days
Procedure: (§2) Cells were seeded at a density of 5×10^3 or 7.2×10^3 cells per well in a 96-well plate in complete DMEM in serial dilutions of the test compounds for Huh 5-2 and Huh 7.5.1 cells, respectively. After three days of incubation, cell viability was determined by MTS/PMS method (Promega).

[4] = Cytostatic assay (MTS/PMS) in Huh 7.5.1 cells; format: cell-based; conditions: human
Procedure: as §2

Huh 7.5.1 cells = test: Cytostatic assay (MTS/PMS) in Huh 7.5.1 cells; format: cell-based
Procedure: as §2

[5] = tested on: HCV replicon in Huh 5-2 cells; test: Drug combination studies (checker-board, Prichard and Shipman) in the HCV replicon system; format: cell-based, hepatitis C virus (HCV); conditions: Figure S2
Procedure: as §1
The effects of drug combinations were evaluated in a checker-board format using the method of Prichard and Shipman. The theoretical additive effect was calculated from the dose–response curves of individual compounds by the equation Z = X+Y(1−X), where X represents the inhibition produced by first compound alone and Y the inhibition by the second compound alone. Z represents the effect produced by the combination of the first with the second compound. The theoretical additive surface is subtracted from the actual experimental surface, resulting in a horizontal surface that equals the zero plane when the combination is additive. A surface that lies above the zero plane indicates a synergistic effect of the combination, and a surface below the zero plane indicates an antagonism. […]

[6] = Hepatitis C virus, Huh-7.5.1, 72 h, read-out: EC50 (50% effective concentration), replication of HCVcc, infectious HCV JFH-1 in Huh 7.5.1
[7] = Huh 7.5.1 hepatoma cells, three days, MTS/PMS
[8] = read-out: EC50 (50% effective concentration), replication of HCVcc, infectious HCV JFH-1 in Huh 7.5.1

| Molecule | EC50 [1] [µM] | fold-change of EC50 with Hemin (5 µM) (value between brackets) [1] | SI [2] | EC50 [2, 6] [µM] | CC50 at 3 days [3] [µM] | CC50 at 3 days [4, 7] [µM] | also measured |
| --- | --- | --- | --- | --- | --- | --- | --- |
| C[C@@H]1CCC2[C@@H](C)[C@H](OCc3ccc(CO)cc3)OC3O[C@@]4(C)CCC1[C@]32OO4 (some centres unmarked) [AJ-001] | 8.8 ± 2.7 | 2 fold | > 5 | 26 ± 5 | > 133 | > 133 |  |
| C[C@@H]1CCC2[C@@H](C)[C@H](OCc3ccc(C=O)cc3)OC3O[C@@]4(C)CCC1[C@]32OO4 (some centres unmarked) [AJ-002] | 30 ± 8 | 15 fold | > 8 | 15 ± 2 | > 133 | > 133 |  |
| CC1CCC2C(C)C(OCc3ccc(COC4OC5OC6(C)CCC7C(C)CCC(C4C)C57OO6)cc3)OC3OC4(C)CCC1C32OO4 (centres unmarked) [AJ-004] | 3.2 ± 2.4 |  | > 8 | 16 ± 4 | > 133 | > 133 | fold more efficient in inhibiting HCV replicon replication compared to the monomer AJ-001 ([1]; subgenomic replicon system): ~3 fold; fold more potent than the monomer AJ-002 ([1]; subgenomic replicon system): ~10 fold |
| C[C@@H]1CC[C@H]2[C@@H](C)C(=O)O[C@@H]3O[C@@]4(C)CC[C@@H]1[C@]32OO4 [ART, Artemisinin, reference compound] | 75 ± 7 | 8 fold | > 2 | 167 ± 38 | > 400 | > 400 | potentiation of antiviral activity by Hemin in the HCVcc system ([2]; Hemin at 5 µM): 2 fold; host cell proliferation and cell viability at the highest concentration tested (Huh 7.5.1 cells; 400 µM, HCVcc system cells): not affected; effect of the combination with TEMPO [5]: marginaly antagonistic effect |
| CO[C@H]1O[C@@H]2O[C@@]3(C)CC[C@H]4[C@H](C)CC[C@@H]([C@H]1C)[C@@]24OO3 [Artemether] |  |  |  |  |  | < 6 |  |
| C[C@H]1[C@H](OC(=O)CCC(=O)O)O[C@@H]2O[C@@]3(C)CC[C@H]4[C@H](C)CC[C@@H]1[C@@]24OO3 [Artesunate] |  |  |  |  |  | < 6 |  |
| C[C@H]1[C@@H](O)O[C@@H]2O[C@@]3(C)CC[C@H]4[C@H](C)CC[C@@H]1[C@@]24OO3 [Dihydroartemisinin] |  |  |  |  |  | < 6 |  |
| CC(=O)N[C@@H](CS)C(=O)O [L-NAC, L-N-acetylcysteine, reference compound] |  |  |  |  |  |  | HCV RNA replication with L-NAC alone ([2]; L-NAC alone at the concentration tested, printed as HCVcc replication): 98 % of UTC |
| CC1(C)CCCC(C)(C)N1[O] [TEMPO, 2,2,6,6-tetramethyl-1-piperidinyloxy, reference compound] |  |  |  |  |  |  | effect of TEMPO alone on the replication of HCV ([1]; HCV replicon system, concentrations up to 200 µM): no effect |
| CC(=O)OC1OC2OC3(C)CCC4C(C)CCC(C1C)C24OO3 (centres unmarked) [TVN2] | 25 ± 13 | +4 fold |  | > 70 | 36 ± 7 |  |  |
| C=COC1OC2OC3(C)CCC4C(C)CCC(C1C)C24OO3 (centres unmarked) [TVN4] | 36 ± 16 | +2 fold | > 2 | 59 ± 6 | 123 ± 14 | > 133 | EC50 [2, 8]: 52 ± 6 µM; effect of the combination with TEMPO [5]: marginaly antagonistic effect |
| CC1CCC2C(C)C(OC(=O)c3ccccc3)OC3OC4(C)CCC1C32OO4 (centres unmarked) [TVN6] | 3.6 ± 2.3 |  |  | > 70 | 40 ± 20 |  |  |
| CCC[C@H](NC(=O)[C@@H]1[C@H]2CCC[C@H]2CN1C(=O)[C@@H](NC(=O)[C@@H](NC(=O)c1cnccn1)C1CCCCC1)C(C)(C)C)C(=O)C(=O)NC1CC1 [VX-950, reference compound] |  |  | > 50 | 0.2 ± 0.1 |  |  | CC50 at 3 days [4]: > 10 µM |
| Hemin [reference compound] |  |  |  |  |  |  | EC50 [2, 8]: 8 ± 0.6 µM; concentration not toxic to Huh 7.5.1 (Huh 7.5.1 cells; Hemin alone): > 50 µM |
